Measured values published in patent US20230257354A1, “NOVEL HETEROCYCLIC COMPOUNDS” (Hoffmann-La Roche Inc., priority 2020, published 2023).
Counter-ions that a name gives are not always drawn.

System: Acinetobacter baumannii ATCC17978
Assay: Antimicrobial susceptibility testing, 90% growth inhibitory concentration (IC90) determination, ATCC17978
Format: cell-based
Conditions: Iso-Sensitest broth, OD 600 nm over 16 h, 35±2° C., read-out: ATCC 17978 IC90
Description: Antimicrobial Susceptibility Testing: 90% Growth Inhibitory Concentration (IC90) Determination The in vitro antimicrobial activity of the compounds was determined according to the following procedure: The assay used a 10-points Iso-Sensitest broth medium to measure quantitatively the in vitro activity of the compounds against Acinetobacter baumannii ATCC17978 or ATCC17961. Stock compounds in DMSO were serially twofold diluted (e.g. range from 50 to 0.097 μM final concentration) in 384 wells microtiter plates and inoculated with 49 μl the bacterial suspension in Iso-Sensitest medium to have a final cell concentration of ˜5×10^(5) CFU/ml in a final volume/well of 50 ul/well. Microtiter plates were incubated at 35±2° C. Bacterial cell growth was determined with the measurement of optical density at X=600 nm each 20 minutes over a time course of 16 h. Growth inhibition was calculated during the logarithmic growth of the bacterial cells with determination of the concentration inhibiting 50% (IC50) and 90% (IC90) of the growth. Table 1 provides the 90% growth inhibitory concentrations (IC90) in micromoles per liter of the compounds of present invention obtained against the strain Acinetobacter baumannii ATCC17978.

SMILES	IC90
CCc1cc(NC(=O)c2ncc(-c3ccc(OCC(N)=O)c(F)c3F)n2C)ccc1C(=O)NCCOCCN [Example A21, N-[4-[2-(2-aminoethoxy)ethylcarbamoyl]-3-ethyl-phenyl]-5-[4-(2-amino-2-oxo-ethoxy)-2,3-difluoro-phenyl]-1-methyl-imidazole-2-carboxamide;hydrochloride]	4700 nM
CCc1cc(NC(=O)c2ncc(-c3ccc(OCC#N)c(F)c3Cl)n2C)ccc1C(=O)NCCOCCN [Example A22, N-[4-[2-(2-aminoethoxy)ethylcarbamoyl]-3-ethyl-phenyl]-5-[2-chloro-4-(cyanomethoxy)-3-fluoro-phenyl]-1-methyl-imidazole-2-carboxamide;hydrochloride]	180 nM
COc1ccc(-c2cnc(C(=O)Nc3ccc(C(=O)NC4CCN(C(=O)CN(C)C)C4)c(Cl)c3)n2C)c(F)c1F (stereo not drawn) [Example A23, N-[3-Chloro-4-[[1-[2-(dimethylamino)acetyl]pyrrolidin-3-yl]carbamoyl]phenyl]-5-(2,3-difluoro-4-methoxy-phenyl)-1-methyl-imidazole-2-carboxamide]	220 nM
COc1ccc(-c2cnc(C(=O)Nc3ccc(C(=O)NCCNC(=O)CN(C)C)c(Cl)c3)n2C)c(F)c1F [Example A24, N-[3-chloro-4-[2-[[2-(dimethylamino)acetyl]amino]ethylcarbamoyl]phenyl]-5-(2,3-difluoro-4-methoxy-phenyl)-1-methyl-imidazole-2-carboxamide;2,2,2-trifluoroacetic acid]	670 nM
COc1ccc(-c2cnc(C(=O)Nc3ccc(C(=O)NC4CCN(C(=O)CN(C)C)CC4)c(Cl)c3)n2C)c(F)c1F [Example A25, N-[3-chloro-4-[[1-[2-(dimethylamino)acetyl]-4-piperidyl]carbamoyl]phenyl]-5-(2,3-difluoro-4-methoxy-phenyl)-1-methyl-imidazole-2-carboxamide]	130 nM
COc1ccc(-c2cnc(C(=O)Nc3ccc(C(=O)NCCCCCN(C)C)c(Cl)c3)n2C)c(F)c1F [Example A26, N-[3-chloro-4-[5-(dimethylamino)pentylcarbamoyl]phenyl]-5-(2,3-difluoro-4-methoxy-phenyl)-1-methyl-imidazole-2-carboxamide]	200 nM
CC(C)CCOCCNC(=O)c1ccc(NC(=O)c2ncc(-c3ccc(OCC#N)c(F)c3F)n2C)cc1Cl [Example A27, N-[3-chloro-4-(2-isopentyloxyethylcarbamoyl)phenyl]-5-[4-(cyanomethoxy)-2,3-difluoro-phenyl]-1-methyl-imidazole-2-carboxamide;formic acid]	240 nM
COc1ccc(-c2cnc(C(=O)Nc3ccc(C(=O)NCCN4CCC(O)C4)c(Cl)c3)n2C)c(F)c1F (stereo not drawn) [Example A28, N-[3-chloro-4-[2-(3-hydroxypyrrolidin-1-yl)ethylcarbamoyl]phenyl]-5-(2,3-difluoro-4-methoxy-phenyl)-1-methyl-imidazole-2-carboxamide]	1200 nM
CCc1cc(NC(=O)c2ncc(-c3ccc(OC)c(F)c3F)n2C)ccc1C(=O)NCCCOCCN(C)C [Example A30, 5-(2,3-difluoro-4-methoxy-phenyl)-N-[4-[3-[2-(dimethylamino)ethoxy]propylcarbamoyl]-3-ethyl-phenyl]-1-methyl-imidazole-2-carboxamide]	250 nM
COc1ccc(-c2cnc(C(=O)Nc3ccc(C(=O)NC4CCN(C(=O)C5CCNCC5)C4)c(Cl)c3)n2C)c(F)c1F (stereo not drawn) [Example B1, N-[3-Chloro-4-[[1-(piperidine-4-carbonyl)pyrrolidin-3-yl]carbamoyl]phenyl]-5-(2,3-difluoro-4-methoxy-phenyl)-1-methyl-imidazole-2-carboxamide; formic acid]	110 nM
COc1ccc(-c2cnc(C(=O)Nc3ccc(C(=O)NC4CCN(C(=O)[C@@H]5CCNC5)C4)c(Cl)c3)n2C)c(F)c1F (stereo partly drawn) [Example B2, N-[3-chloro-4-[[1-[(3R)-pyrrolidine-3-carbonyl]pyrrolidin-3-yl]carbamoyl]phenyl]-5-(2,3-difluoro-4-methoxy-phenyl)-1-methyl-imidazole-2-carboxamide;formic acid]	130 nM
COc1ccc(-c2cnc(C(=O)Nc3ccc(C(=O)NC4CCN(C(=O)[C@@H]5C[C@@H](O)CN5)C4)c(Cl)c3)n2C)c(F)c1F (stereo partly drawn) [Example B3, N-[3-chloro-4-[[1-[(2S,4R)-4-hydroxypyrrolidine-2-carbonyl]pyrrolidin-3-yl]carbamoyl]phenyl]-5-(2,3-difluoro-4-methoxy-phenyl)-1-methyl-imidazole-2-carboxamide;formic acid]	280 nM
COc1ccc(-c2cnc(C(=O)Nc3ccc(C(=O)NC4CCN(C(=O)CCOCCN)C4)c(Cl)c3)n2C)c(F)c1F (stereo not drawn) [Example B4, N-[4-[[1-[3-(2-aminoethoxy)propanoyl]pyrrolidin-3-yl]carbamoyl]-3-chloro-phenyl]-5-(2,3-difluoro-4-methoxy-phenyl)-1-methyl-imidazole-2-carboxamide;formic acid]	200 nM
COc1ccc(-c2cnc(C(=O)Nc3ccc(C(=O)NC4CCN(C(=O)C5CCNCC5)CC4)c(Cl)c3)n2C)c(F)c1F [Example B5, N-[3-chloro-4-[[1-(piperidine-4-carbonyl)-4-piperidyl]carbamoyl]phenyl]-5-(2,3-difluoro-4-methoxy-phenyl)-1-methyl-imidazole-2-carboxamide;formic acid]	79 nM
COc1ccc(-c2cnc(C(=O)Nc3ccc(C(=O)NC4CCN(C(=O)[C@@H]5CCNC5)CC4)c(Cl)c3)n2C)c(F)c1F [Example B6, N-[3-chloro-4-[[1-[(3R)-pyrrolidine-3-carbonyl]-4-piperidyl]carbamoyl]phenyl]-5-(2,3-difluoro-4-methoxy-phenyl)-1-methyl-imidazole-2-carboxamide;formic acid]	100 nM
COc1ccc(-c2cnc(C(=O)Nc3ccc(C(=O)NC4CCN(C(=O)[C@@H]5C[C@@H](O)CN5)CC4)c(Cl)c3)n2C)c(F)c1F [Example B7, N-[3-chloro-4-[[1-[(2S,4R)-4-hydroxypyrrolidine-2-carbonyl]-4-piperidyl]carbamoyl]phenyl]-5-(2,3-difluoro-4-methoxy-phenyl)-1-methyl-imidazole-2-carboxamide]	82 nM
COc1ccc(-c2cnc(C(=O)Nc3ccc(C(=O)NC4CCN(C(=O)CCOCCN)CC4)c(Cl)c3)n2C)c(F)c1F [Example B8, N-[4-[[1-[3-(2-aminoethoxy)propanoyl]-4-piperidyl]carbamoyl]-3-chloro-phenyl]-5-(2,3-difluoro-4-methoxy-phenyl)-1-methyl-imidazole-2-carboxamide;formic acid]	140 nM
COc1ccc(-c2cnc(C(=O)Nc3ccc(C(=O)N[C@H]4C[C@@H](NC(=O)C5CC(CN)C5)C4)c(Cl)c3)n2C)c(F)c1F (stereo partly drawn) [Example B9, N-[4-[[3-[[3-(aminomethyl)cyclobutanecarbonyl]amino]cyclobutyl]carbamoyl]-3-chloro-phenyl]-5-(2,3-difluoro-4-methoxy-phenyl)-1-methyl-imidazole-2-carboxamide;formic acid]	210 nM
Cn1c(-c2ccc(OC(F)F)c(F)c2F)cnc1C(=O)Nc1ccc(C(=O)NCCC2CN(C(=O)CCN)C2)c(Cl)c1 [Example B10, N-[4-[2-[1-(3-aminopropanoyl)azetidin-3-yl]ethylcarbamoyl]-3-chloro-phenyl]-5-[4-(difluoromethoxy)-2,3-difluoro-phenyl]-1-methyl-imidazole-2-carboxamide;2,2,2-trifluoroacetic acid]	140 nM
Cn1c(-c2ccc(OC(F)F)c(F)c2F)cnc1C(=O)Nc1ccc(C(=O)NCCCNC(=O)CCN)c(Cl)c1 [Example B11, N-[4-[3-(3-aminopropanoylamino)propylcarbamoyl]-3-chloro-phenyl]-5-[4-(difluoromethoxy)-2,3-difluoro-phenyl]-1-methyl-imidazole-2-carboxamide;2,2,2-trifluoroacetic acid]	230 nM
CCc1cc(NC(=O)c2ncc(-c3ccc(OC(F)F)c(F)c3F)n2C)ccc1C(=O)NCCCNC(=O)C1CCNCC1 [Example B12, N-[3-[[4-[[5-[4-(difluoromethoxy)-2,3-difluoro-phenyl]-1-methyl-imidazole-2-carbonyl]amino]-2-ethyl-benzoyl]amino]propyl]piperidine-4-carboxamide;formic acid]	760 nM
Cc1cc(NC(=O)c2ncc(-c3ccc(OCC#N)c(F)c3F)n2C)ccc1C(=O)NCCNC(=O)C1CCNCC1 [Example B13, N-[2-[[4-[[5-[4-(cyanomethoxy)-2,3-difluoro-phenyl]-1-methyl-imidazole-2-carbonyl]amino]-2-methyl-benzoyl]amino]ethyl]piperidine-4-carboxamide;formic acid]	910 nM
Cc1cc(NC(=O)c2ncc(-c3ccc(OCC#N)c(F)c3F)n2C)ccc1C(=O)NCCNC(=O)C1(O)CCNCC1 [Example B14, N-[2-[[4-[[5-[4-(cyanomethoxy)-2,3-difluoro-phenyl]-1-methyl-imidazole-2-carbonyl]amino]-2-methyl-benzoyl]amino]ethyl]-4-hydroxy-piperidine-4-carboxamide;formic acid]	990 nM
Cn1c(-c2ccc(OCC#N)c(F)c2F)cnc1C(=O)Nc1ccc(C(=O)NCCNC(=O)C2CCNCC2)c(Cl)c1 [Example B15, N-[2-[[2-chloro-4-[[5-[4-(cyanomethoxy)-2,3-difluoro-phenyl]-1-methyl-imidazole-2-carbonyl]amino]benzoyl]amino]ethyl]piperidine-4-carboxamide;2,2,2-trifluoroacetic acid]	360 nM
